≈ marks a conversion by molar mass, not a printed value. Ends that are not written are not given here.

One test deals with S. gallinarum (pGV5). In words: Minimum inhibitory concentration of kanamycin used for selection. In kind it is cell-based, Staphylococcus gallinarum. The settings on record: B-medium. Here is the method:
FIG. 4 is a schematic representation of the strategy employed for the selection of gdmP knock-out strains. Cm: chloramphenicol; Kan: kanamycin; MIC: minimum inhibitory concentration; R: resistance; S: sensitivity;
A first S. gallinarum (pGV5) culture was started inoculating 10 ml kanamycin-supplemented ([…]) B-medium with a single colony of a transformed cell. Culture was incubated shaking with 225 rpm at 30° C., a temperature that allowed pGV5 to replicate as free plasmid (permissive temperature), until late stationary phase (16h). With this culture, new cultures were inoculated (1:100) and incubated shaking with 225 rpm at 30° C. into the late stationary phase (16 h). […] This step was repeated once, before diluting the cultures 1:100 into 100 ml B-medium containing no antibiotic. Growth at 40° C. was extended for another 24 hours.

In a further test the test system is sensitive test strain. As to the kind of experiment: Test-disc bioassay of antibacterial activity of gallidermin preparations. In kind it is cell-based. The conditions noted are these: dilutions of stock solutions on test discs, same concentrations. Here is the method: FIGS. 12A and B show the result of the proteolytic (trypsin) conversion of pregallidermins into gallidermin. […] Dilutions for a stock solution of either compound were applied onto test discs and incubated in the presence of a sensitive test strain. […] Pre-gallidermins (1.09 g/l) were incubated with trypsin (0.2 g/l) 1 h, RT, pH 6.5,
Of all proteases examined, only trypsin appeared to be suitable for a commercial and industrialised process. […] We have disclosed the feasibility to selectively cleave pre-gallidermins into mature gallidermin using serine-type proteases and trypsin in particular. While we have employed soluble enzyme preparations, alternatives, such as immobilized enzyme preparations, could be used instead. This would facilitate the repetitive use of such enzymes and avoid possible contaminations of the final product by trypsin, even though, trypsin is generally regarded as safe (GRAS).

`NC[C@H]1O[C@H](O[C@H]2[C@H](O)[C@@H](O[C@H]3O[C@H](CO)[C@@H](O)[C@H](N)[C@H]3O)[C@H](N)C[C@@H]2N)[C@H](O)[C@@H](O)[C@@H]1O` [kanamycin] showed an MIC value in the test on S. gallinarum (pGV5) of 7500 µg/mL (≈ 15.5 mM).
As for “gallidermin [in-situ activated gallidermin] (IASKFLCTPGCAKTGSFNSYCC; also: lantibiotic with dehydroamino residues and thioether bridges, places not given here, in-situ activated form; UniProt P21838 31-52, looked up)”, the “bioactivity compared with gallidermin isolated from the wild-type strain” value in the test with sensitive test strain is reported as “same bioactivity”.
